How the values were obtained:
Assay type in all cases: in vivo
[1] = system: Aedes aegypti; assay: whole plant or invertebrate; conditions: 800 ppm; larvae; 2 days
Summary of the method: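 Visual larval mortality was assessed 2 days after treatment (28±1 °C, 80±5% RH). Formulations of compounds or mixtures (75% water/25% DMSO) were applied by micro-atomizer onto diet of 5-15 newly hatched larvae per water-filled well, two replicates per concentration.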

[2] = system: Anthonomus grandis; assay: Action on Boll Weevil (Anthonomus grandis); conditions: 800 ppm; egg and larval mortality; 5 days
Summary of the method: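 Diet in 96-well plates, seeded with 5-10 A. grandis eggs, received a spray of formulated compound (25% DMSO in water) at a range of concentrations, duplicated. Mortality of eggs and larvae was judged by eye after 5 days at about 25±1 °C, 75±5% relative humidity.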

[3] = system: Heliothis virescens; assay: Action on Tobacco Budworm (Heliothis virescens); conditions: 800 ppm; egg and larval mortality; 5 days
Summary of the method: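 Eggs (15-25 per well) on diet were held 5 days at about 28±1 °C, 80±5% RH, then egg and larval mortality was scored by eye. Beforehand the diet had been sprayed with compound dilutions formulated in water/DMSO 75:25 v/v, in two replicates.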

[4] = system: Spodoptera eridania; assay: Action on Southern Armyworm (Spodoptera eridania), 2nd Instar Larvae; conditions: 300 ppm; 2nd instar larvae; 4 days after treatment
Summary of the method: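 2nd-instar Spodoptera eridania larvae (about 10–11 per pot) confined on sprayed, dried Lima bean plants (1st true leaf stage) in sealed bags. Spray solutions: acetone/water 1:1 plus 0.01% surfactant. Held 4 days near 25 °C, 20–40% RH; assessed for mortality and feeding reduction against untreated controls.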

[5] = system: Plutella xylostella; assay: Action on Diamond Back Moth (Plutella xylostella), microtiter plates, insect diet, eggs; conditions: 800 ppm; egg and larval mortality; 5 days
Method: Example B8: Action on Diamond Back Moth (Plutella xylostella)
For evaluating control of diamond back moth (Plutella xylostella) the test unit consisted of 96-well-microtiter plates containing an insect diet and 15-25 P. xylostella eggs. The compounds or mixtures were formulated using a solution containing 75% water and 25% DMSO. Different concentrations of formulated compounds or mixtures were sprayed onto the insect diet at 5 μl, using a custom-built micro atomizer, at two replications. For experimental mixtures in these tests identical volumes of both mixing partners at the desired concentrations respectively, were mixed together. After application, microtiter plates were incubated at 28±1 °C, 80±5% RH for 5 days. Egg and larval mortality was then visually assessed.

SMILES | mortality in comparison with untreated controls [1] | mortality in comparison with untreated controls [2] | mortality in comparison with untreated controls [3] | mortality in comparison with untreated controls [4] | mortality in comparison with untreated controls [5]
Cc1ccc(C(C)C)c(N2C(=O)CSC2=NC(=O)Nc2ccc(-n3cc(NC(=O)c4ccc([N+](=O)[O-])cc4)c(C)n3)cc2)c1 [Example C-54] | at least 50% | at least 75% | at least 75% | at least 75% | at least 75%
Cc1ccc(C(C)C)c(N2C(=O)CS/C2=N\C(=O)Nc2cc(Cl)c(-n3nc(C)c(NC(=O)c4ccc(OC(F)(F)F)cc4)c3C)cc2C)c1 [Example C-98] | at least 50% | at least 75% | at least 75% | at least 75% | at least 75%
Cc1ccc(C(C)C)c(N2C(=O)CS/C2=N\C(=O)Nc2cc(C)c(-n3nc(C)c(NC(=O)c4ccc(OC(F)(F)F)cc4)c3C)cc2Cl)c1 [Example C-99] | at least 50% | at least 75% | at least 75% | at least 75% | at least 75%
Cc1ccc(C(C)C)c(N2C(=O)CS/C2=N\C(=O)Nc2ccc(-n3nc(C)c(NC(=O)c4ccc(OC(F)(F)F)cc4)c3NCC3OCCO3)cc2)c1 [Example C-100] | at least 50% | at least 75% | at least 75% | at least 75% | at least 75%
Cc1ccc(C(C)C)c(N2C(=O)CS/C2=N\C(=O)Nc2ccc(-n3nc(C)c(NC(=O)c4ccc(OC(F)(F)F)cc4)c3N)cc2)c1 [Example C-101] | at least 50% | at least 75% | at least 75% | at least 75% | at least 75%
Cc1ccc(C(C)C)c(N2C(=O)CS/C2=N\C(=O)Nc2ccc(-n3nc(C)c(NC(=O)c4ccc(Cl)c(Cl)c4)c3C)cc2Cl)c1 [Example C-102] | at least 50% | at least 75% | at least 75% | at least 75% | at least 75%
CCN(C(=O)c1ccc(Cl)c(Cl)c1)c1c(C)nn(-c2ccc(NC(=O)/N=C3\SCC(=O)N3c3cc(C)ccc3C(C)C)c(Cl)c2)c1C [Example C-103] | at least 50% | at least 75% | at least 75% | at least 75% | at least 75%
Cc1ccc(C(C)C)c(N2C(=O)CS/C2=N\C(=O)Nc2c(C)cc(-n3nc(C)c(NC(=O)c4ccc(OC(F)(F)F)cc4)c3C)cc2Cl)c1 [Example C-105] | at least 50% | at least 75% | at least 75% | at least 75% | at least 75%
Cc1ccc(C(C)C)c(N2C(=O)CS/C2=N\C(=O)Nc2ccc(-n3nc(C)c(NC(=O)c4ccc(Cl)cc4F)c3C)cc2Cl)c1 [Example C-106] | at least 50% | at least 75% | at least 75% | at least 75% | at least 75%
Cc1ccc(C(C)C)c(N2C(=O)CSC2=NC(=O)Nc2ccc(-n3nc(C)c(NC(=O)c4ccc(C#N)cc4F)c3C)cc2)c1 [Example C-107] | at least 50% | at least 75% | at least 75% | at least 75% | at least 75%
Cc1ccc(C(C)C)c(N2C(=O)CSC2=NC(=O)Nc2ccc(-n3nc(C)c(NC(=O)c4ccc(C#N)c(F)c4)c3C)cc2)c1 [Example C-108] | at least 50% | at least 75% | at least 75% | at least 75% | at least 75%
Cc1ccc(C(C)C)c(N2C(=O)CSC2=NC(=O)Nc2ccc(-n3nc(C)c(NC(=O)c4ccc(Cl)c(F)c4)c3C)cc2)c1 [Example C-109] | at least 50% | at least 75% | at least 75% | at least 75% | at least 75%
Cc1ccc(C(C)C)c(N2C(=O)CSC2=NC(=O)Nc2ccc(-n3nc(C)c(NC(=O)c4ccc(Cl)cc4F)c3C)cc2)c1 [Example C-110] | at least 50% | at least 75% | at least 75% | at least 75% | at least 75%
Cc1ccc(C(C)C)c(N2C(=O)CSC2=NC(=O)Nc2ccc(-n3nc(C)c(NC(=O)c4ccc(Cl)cc4)c3C)cc2)c1 [Example C-111] | at least 50% | at least 75% | at least 75% | at least 75% | at least 75%
Cc1ccc(C(C)C)c(N2C(=O)CSC2=NC(=O)Nc2ccc(-n3nc(C)c(NC(=O)c4ccc(F)cc4)c3C)cc2)c1 [Example C-112] | at least 50% | at least 75% | at least 75% | at least 75% | at least 75%
Cc1ccc(C(C)C)c(N2C(=O)CSC2=NC(=O)Nc2ccc(-n3nc(C)c(NC(=O)c4ccc(F)c(F)c4)c3C)cc2)c1 [Example C-114] | at least 50% | at least 75% | at least 75% | at least 75% | at least 75%
Cc1ccc(C(C)C)c(N2C(=O)CSC2=NC(=O)Nc2ccc(-n3nc(C)c(NC(=O)c4ccc(Cl)c(Cl)c4)c3C)cc2)c1 [Example C-115] | at least 50% | at least 75% | at least 75% | at least 75% | at least 75%
Cc1ccc(C(C)C)c(N2C(=O)CSC2=NC(=O)Nc2ccc(-n3nc(C)c(NC(=O)c4ccc(Br)cc4)c3C)cc2)c1 [Example C-116] | at least 50% | at least 75% | at least 75% | at least 75% | at least 75%

— patent publication US20260354380A1, “PYRAZOLO PESTICIDAL COMPOUNDS” (BASF SE, priority 2022, published 2026)
